Non-standard residues stand in square brackets, D forms with d. Residues, ends and D or L forms follow the SMILES beside them. NMeI = CC[C@H](C)[C@H](NC)C(=O)O; NMeA = CN[C@@H](C)C(=O)O; Nle = CCCC[C@H](N)C(=O)O
target: skeletal muscle myosin-supported prothrombin activation by factors Xa and Va (Homo sapiens, UniProt P00742); assay: Assay 1A: prothrombin activation by factor Xa/factor Va/myosin in purified system; format: biochemical, human factors Xa and Va; rabbit skeletal muscle myosin; conditions: purified system, prothrombin activation with myosin; read-out: 1A (+ myosin) IC50
Sequence (P00742 41-179): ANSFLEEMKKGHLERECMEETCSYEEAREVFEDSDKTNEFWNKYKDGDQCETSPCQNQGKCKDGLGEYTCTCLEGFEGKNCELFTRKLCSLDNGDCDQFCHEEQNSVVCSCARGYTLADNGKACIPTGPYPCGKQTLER
Sequence (P00742 235-488): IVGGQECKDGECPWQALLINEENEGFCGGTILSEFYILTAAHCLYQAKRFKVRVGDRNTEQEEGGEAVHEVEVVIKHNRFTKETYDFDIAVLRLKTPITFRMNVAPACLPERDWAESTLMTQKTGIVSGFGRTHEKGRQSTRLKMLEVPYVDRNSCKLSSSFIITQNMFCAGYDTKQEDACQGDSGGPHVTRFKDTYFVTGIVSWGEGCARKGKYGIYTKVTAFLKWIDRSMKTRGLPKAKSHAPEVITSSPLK
Sequence (P12259 29-737 partner): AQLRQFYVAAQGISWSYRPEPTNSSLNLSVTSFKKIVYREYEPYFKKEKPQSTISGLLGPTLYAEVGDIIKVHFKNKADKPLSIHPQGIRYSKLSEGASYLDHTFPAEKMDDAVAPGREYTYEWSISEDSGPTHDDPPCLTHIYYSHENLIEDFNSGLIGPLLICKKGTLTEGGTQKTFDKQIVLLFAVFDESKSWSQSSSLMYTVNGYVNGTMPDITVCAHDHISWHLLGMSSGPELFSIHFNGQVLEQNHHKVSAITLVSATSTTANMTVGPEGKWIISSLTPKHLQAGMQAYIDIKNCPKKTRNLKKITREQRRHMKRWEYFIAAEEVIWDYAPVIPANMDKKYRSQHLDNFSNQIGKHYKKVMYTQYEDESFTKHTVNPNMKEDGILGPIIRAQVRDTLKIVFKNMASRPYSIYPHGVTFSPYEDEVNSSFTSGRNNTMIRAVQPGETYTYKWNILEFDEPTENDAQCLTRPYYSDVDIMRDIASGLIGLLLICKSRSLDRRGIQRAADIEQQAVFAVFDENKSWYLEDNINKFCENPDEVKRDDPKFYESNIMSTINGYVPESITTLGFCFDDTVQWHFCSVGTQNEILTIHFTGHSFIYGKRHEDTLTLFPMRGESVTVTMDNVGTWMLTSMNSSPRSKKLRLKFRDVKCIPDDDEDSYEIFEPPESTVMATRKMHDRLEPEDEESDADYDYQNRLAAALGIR
Sequence (P12259 1574-2224 partner): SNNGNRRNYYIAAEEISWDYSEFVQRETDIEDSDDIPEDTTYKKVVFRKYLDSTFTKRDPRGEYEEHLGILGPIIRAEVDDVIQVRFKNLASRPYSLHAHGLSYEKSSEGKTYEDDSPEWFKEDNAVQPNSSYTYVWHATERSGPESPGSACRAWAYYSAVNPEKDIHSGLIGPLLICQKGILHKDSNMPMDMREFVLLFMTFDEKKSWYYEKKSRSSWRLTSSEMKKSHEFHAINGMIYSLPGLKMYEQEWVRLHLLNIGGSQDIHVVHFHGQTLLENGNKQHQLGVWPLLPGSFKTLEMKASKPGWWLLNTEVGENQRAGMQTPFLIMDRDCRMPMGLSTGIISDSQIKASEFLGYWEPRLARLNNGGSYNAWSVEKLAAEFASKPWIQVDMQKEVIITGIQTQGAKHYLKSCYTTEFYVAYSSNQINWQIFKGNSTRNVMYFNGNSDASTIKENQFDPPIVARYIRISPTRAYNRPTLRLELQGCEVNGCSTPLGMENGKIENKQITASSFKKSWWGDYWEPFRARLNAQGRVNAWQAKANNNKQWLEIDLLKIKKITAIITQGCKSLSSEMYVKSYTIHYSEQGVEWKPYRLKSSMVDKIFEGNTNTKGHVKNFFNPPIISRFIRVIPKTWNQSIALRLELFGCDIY

| IC50 [nM] | Structure (SMILES) |
| --- | --- |
| 1600 | CCCC[C@H](NC(=O)[C@H](Cc1c[nH]c2ccccc12)NC(=O)[C@@H]1CCCN1C(=O)[C@H](Cc1c[nH]c2ccccc12)NC(=O)[C@H](Cc1c[nH]cn1)NC(=O)[C@H](CCCCN)NC(=O)[C@@H](NC(=O)[C@H](CC(N)=O)NC(=O)[C@H](CCCC)NC(=O)[C@H](Cc1ccccc1)NC(=O)[C@H](CO)NC(=O)[C@H](CCCNC(=N)N)NC(=O)[C@@H](NC(=O)[C@H](CC(N)=O)NC(=O)[C@H](Cc1ccc(O)cc1)NC(=O)[C@H](CCC(N)=O)NC(=O)[C@@H](NC(=O)[C@H](CS)NC(=O)[C@H](Cc1ccccc1)NC(=O)[C@H](C)N(C)C(=O)[C@H](C)N)[C@@H](C)CC)[C@@H](C)CC)C(C)C)C(=O)N[C@@H](CCCCN)C(N)=O [HC191] (H-A[NMeA]FCIQYNIRSF[Nle]NVKHWPW[Nle]K-NH2; N-terminus assumed) |
| 2200 | CCCC[C@H](NC(=O)[C@H](Cc1c[nH]c2ccccc12)NC(=O)[C@@H]1CCCN1C(=O)[C@H](Cc1c[nH]c2ccccc12)NC(=O)[C@H](Cc1c[nH]cn1)NC(=O)[C@H](CCCCN)NC(=O)[C@@H](NC(=O)[C@H](CC(N)=O)NC(=O)[C@H](CCCC)NC(=O)[C@H](Cc1ccccc1)NC(=O)[C@H](CO)NC(=O)[C@H](CCCNC(=N)N)NC(=O)[C@@H](NC(=O)[C@H](CC(N)=O)NC(=O)[C@H](Cc1ccc(O)cc1)NC(=O)[C@H](CCC(N)=O)NC(=O)[C@@H](NC(=O)[C@H](CS)NC(=O)[C@H](Cc1ccccc1)NC(=O)[C@H]([C@@H](C)CC)N(C)C(=O)[C@H](C)N)[C@@H](C)CC)[C@@H](C)CC)C(C)C)C(=O)N[C@@H](CCCCN)C(N)=O [HC192] (H-A[NMeI]FCIQYNIRSF[Nle]NVKHWPW[Nle]K-NH2; N-terminus assumed) |

same assay, conditions: purified system; skeletal muscle myosin, factor Va 5 nM, factor Xa 0.2 nM, prothrombin 0.75 μM, 10 min; read-out: 1A (+myosin)

| IC50 [nM] | Structure (SMILES) |
| --- | --- |
| 4200 | CC[C@H](C)[C@H](NC(=O)[C@H](C)N)C(=O)N[C@@H](Cc1ccccc1)C(=O)N[C@@H](CS)C(=O)N[C@H](C(=O)N[C@@H](CCC(N)=O)C(=O)N[C@@H](Cc1ccc(O)cc1)C(=O)N[C@@H](CC(N)=O)C(=O)N[C@H](C(=O)N[C@@H](CCCNC(=N)N)C(=O)N[C@@H](CO)C(=O)N[C@@H](Cc1ccccc1)C(=O)N[C@@H](CCSC)C(=O)N[C@@H](C)C(=O)N[C@H](C(=O)N[C@@H](CCCCN)C(=O)N[C@@H](Cc1c[nH]cn1)C(=O)N[C@@H](Cc1c[nH]c2ccccc12)C(=O)N1CCC[C@H]1C(=O)N[C@@H](Cc1c[nH]c2ccccc12)C(=O)N[C@@H](CCSC)C(=O)N[C@@H](CCCCN)C(N)=O)C(C)C)[C@@H](C)CC)[C@@H](C)CC [HC129] (H-AIFCIQYNIRSFMAVKHWPWMK-NH2; N-terminus assumed) |
| 2100 | CC[C@H](C)[C@H](NC(=O)[C@H](C)N)C(=O)N[C@@H](Cc1ccccc1)C(=O)N[C@@H](CS)C(=O)N[C@H](C(=O)N[C@@H](CCC(N)=O)C(=O)N[C@@H](Cc1ccc(O)cc1)C(=O)N[C@@H](CC(N)=O)C(=O)N[C@H](C(=O)N[C@@H](CCCNC(=N)N)C(=O)N[C@@H](CO)C(=O)N[C@@H](Cc1ccccc1)C(=O)N[C@@H](CCSC)C(=O)N[C@@H](CC(N)=O)C(=O)N[C@@H](C)C(=O)N[C@@H](CCCCN)C(=O)N[C@@H](Cc1c[nH]cn1)C(=O)N[C@@H](Cc1c[nH]c2ccccc12)C(=O)N1CCC[C@H]1C(=O)N[C@@H](Cc1c[nH]c2ccccc12)C(=O)N[C@@H](CCSC)C(=O)N[C@@H](CCCCN)C(N)=O)[C@@H](C)CC)[C@@H](C)CC [HC130] (H-AIFCIQYNIRSFMNAKHWPWMK-NH2; N-terminus assumed) |
| 2200 | CC[C@H](C)[C@H](NC(=O)[C@H](C)N)C(=O)N[C@@H](Cc1ccccc1)C(=O)N[C@@H](CS)C(=O)N[C@H](C(=O)N[C@@H](CCC(N)=O)C(=O)N[C@@H](Cc1ccc(O)cc1)C(=O)N[C@@H](CC(N)=O)C(=O)N[C@H](C(=O)N[C@@H](CCCNC(=N)N)C(=O)N[C@@H](CO)C(=O)N[C@@H](Cc1ccccc1)C(=O)N[C@@H](CCSC)C(=O)N[C@@H](CC(N)=O)C(=O)N[C@H](C(=O)N[C@@H](C)C(=O)N[C@@H](Cc1c[nH]cn1)C(=O)N[C@@H](Cc1c[nH]c2ccccc12)C(=O)N1CCC[C@H]1C(=O)N[C@@H](Cc1c[nH]c2ccccc12)C(=O)N[C@@H](CCSC)C(=O)N[C@@H](CCCCN)C(N)=O)C(C)C)[C@@H](C)CC)[C@@H](C)CC [HC131] (H-AIFCIQYNIRSFMNVAHWPWMK-NH2; N-terminus assumed) |
| 3100 | CC[C@H](C)[C@H](NC(=O)[C@H](C)N)C(=O)N[C@@H](Cc1ccccc1)C(=O)N[C@@H](CS)C(=O)N[C@H](C(=O)N[C@@H](CCC(N)=O)C(=O)N[C@@H](Cc1ccc(O)cc1)C(=O)N[C@@H](CC(N)=O)C(=O)N[C@H](C(=O)N[C@@H](CCCNC(=N)N)C(=O)N[C@@H](CO)C(=O)N[C@@H](Cc1ccccc1)C(=O)N[C@@H](CCSC)C(=O)N[C@@H](CC(N)=O)C(=O)N[C@H](C(=O)N[C@@H](CCCCN)C(=O)N[C@@H](C)C(=O)N[C@@H](Cc1c[nH]c2ccccc12)C(=O)N1CCC[C@H]1C(=O)N[C@@H](Cc1c[nH]c2ccccc12)C(=O)N[C@@H](CCSC)C(=O)N[C@@H](CCCCN)C(N)=O)C(C)C)[C@@H](C)CC)[C@@H](C)CC [HC132] (H-AIFCIQYNIRSFMNVKAWPWMK-NH2; N-terminus assumed) |
| 1800 | CC[C@H](C)[C@H](NC(=O)[C@H](C)N)C(=O)N[C@@H](Cc1ccccc1)C(=O)N[C@@H](CS)C(=O)N[C@H](C(=O)N[C@@H](CCC(N)=O)C(=O)N[C@@H](Cc1ccc(O)cc1)C(=O)N[C@@H](CC(N)=O)C(=O)N[C@H](C(=O)N[C@@H](CCCNC(=N)N)C(=O)N[C@@H](CO)C(=O)N[C@@H](Cc1ccccc1)C(=O)N[C@@H](CCSC)C(=O)N[C@@H](CC(N)=O)C(=O)N[C@H](C(=O)N[C@@H](CCCCN)C(=O)N[C@@H](Cc1c[nH]cn1)C(=O)N[C@@H](C)C(=O)N1CCC[C@H]1C(=O)N[C@@H](Cc1c[nH]c2ccccc12)C(=O)N[C@@H](CCSC)C(=O)N[C@@H](CCCCN)C(N)=O)C(C)C)[C@@H](C)CC)[C@@H](C)CC [HC133] (H-AIFCIQYNIRSFMNVKHAPWMK-NH2; N-terminus assumed) |
| 900 | CC[C@H](C)[C@H](NC(=O)[C@H](C)N)C(=O)N[C@@H](Cc1ccccc1)C(=O)N[C@@H](CS)C(=O)N[C@H](C(=O)N[C@@H](CCC(N)=O)C(=O)N[C@@H](Cc1ccc(O)cc1)C(=O)N[C@@H](CC(N)=O)C(=O)N[C@H](C(=O)N[C@@H](CCCNC(=N)N)C(=O)N[C@@H](CO)C(=O)N[C@@H](Cc1ccccc1)C(=O)N[C@@H](CCSC)C(=O)N[C@@H](CC(N)=O)C(=O)N[C@H](C(=O)N[C@@H](CCCCN)C(=O)N[C@@H](Cc1c[nH]cn1)C(=O)N[C@@H](Cc1c[nH]c2ccccc12)C(=O)N[C@@H](C)C(=O)N[C@@H](Cc1c[nH]c2ccccc12)C(=O)N[C@@H](CCSC)C(=O)N[C@@H](CCCCN)C(N)=O)C(C)C)[C@@H](C)CC)[C@@H](C)CC [HC134] (H-AIFCIQYNIRSFMNVKHWAWMK-NH2; N-terminus assumed) |
| 2700 | CC[C@H](C)[C@H](NC(=O)[C@H](C)N)C(=O)N[C@@H](Cc1ccccc1)C(=O)N[C@@H](CS)C(=O)N[C@H](C(=O)N[C@@H](CCC(N)=O)C(=O)N[C@@H](Cc1ccc(O)cc1)C(=O)N[C@@H](CC(N)=O)C(=O)N[C@H](C(=O)N[C@@H](CCCNC(=N)N)C(=O)N[C@@H](CO)C(=O)N[C@@H](Cc1ccccc1)C(=O)N[C@@H](CCSC)C(=O)N[C@@H](CC(N)=O)C(=O)N[C@H](C(=O)N[C@@H](CCCCN)C(=O)N[C@@H](Cc1c[nH]cn1)C(=O)N[C@@H](Cc1c[nH]c2ccccc12)C(=O)N1CCC[C@H]1C(=O)N[C@@H](C)C(=O)N[C@@H](CCSC)C(=O)N[C@@H](CCCCN)C(N)=O)C(C)C)[C@@H](C)CC)[C@@H](C)CC [HC135] (H-AIFCIQYNIRSFMNVKHWPAMK-NH2; N-terminus assumed) |
| 1600 | CC[C@H](C)[C@H](NC(=O)[C@H](C)N)C(=O)N[C@@H](Cc1ccccc1)C(=O)N[C@@H](CS)C(=O)N[C@H](C(=O)N[C@@H](CCC(N)=O)C(=O)N[C@@H](Cc1ccc(O)cc1)C(=O)N[C@@H](CC(N)=O)C(=O)N[C@H](C(=O)N[C@@H](CCCNC(=N)N)C(=O)N[C@@H](CO)C(=O)N[C@@H](Cc1ccccc1)C(=O)N[C@@H](CCSC)C(=O)N[C@@H](CC(N)=O)C(=O)N[C@H](C(=O)N[C@@H](CCCCN)C(=O)N[C@@H](Cc1c[nH]cn1)C(=O)N[C@@H](Cc1c[nH]c2ccccc12)C(=O)N1CCC[C@H]1C(=O)N[C@@H](Cc1c[nH]c2ccccc12)C(=O)N[C@@H](C)C(=O)N[C@@H](CCCCN)C(N)=O)C(C)C)[C@@H](C)CC)[C@@H](C)CC [HC136] (H-AIFCIQYNIRSFMNVKHWPWAK-NH2; N-terminus assumed) |
| 5500 | CC[C@H](C)[C@H](NC(=O)[C@H](C)N)C(=O)N[C@@H](Cc1ccccc1)C(=O)N[C@@H](CS)C(=O)N[C@H](C(=O)N[C@@H](CCC(N)=O)C(=O)N[C@@H](Cc1ccc(O)cc1)C(=O)N[C@@H](CC(N)=O)C(=O)N[C@H](C(=O)N[C@@H](CCCNC(=N)N)C(=O)N[C@@H](CO)C(=O)N[C@@H](Cc1ccccc1)C(=O)N[C@@H](CCSC)C(=O)N[C@@H](CC(N)=O)C(=O)N[C@H](C(=O)N[C@@H](CCCCN)C(=O)N[C@@H](Cc1c[nH]cn1)C(=O)N[C@@H](Cc1c[nH]c2ccccc12)C(=O)N1CCC[C@H]1C(=O)N[C@@H](Cc1c[nH]c2ccccc12)C(=O)N[C@@H](CCSC)C(=O)N[C@@H](C)C(N)=O)C(C)C)[C@@H](C)CC)[C@@H](C)CC [HC137] (H-AIFCIQYNIRSFMNVKHWPWMA-NH2; N-terminus assumed) |
| 3600 | CCCC[C@H](NC(=O)[C@H](Cc1c[nH]c2ccccc12)NC(=O)[C@@H]1CCCN1C(=O)[C@H](Cc1c[nH]c2ccccc12)NC(=O)[C@H](Cc1c[nH]cn1)NC(=O)[C@H](CCCCN)NC(=O)[C@@H](NC(=O)[C@H](CC(N)=O)NC(=O)[C@H](CCCC)NC(=O)[C@H](Cc1ccccc1)NC(=O)[C@H](CO)NC(=O)[C@H](CCCNC(=N)N)NC(=O)[C@@H](NC(=O)[C@H](CC(N)=O)NC(=O)[C@H](Cc1ccc(O)cc1)NC(=O)[C@H](CCC(N)=O)NC(=O)[C@@H](NC(=O)[C@H](CS)NC(=O)[C@H](Cc1ccccc1)NC(=O)[C@@H](NC(=O)[C@H](C)NC)[C@@H](C)CC)[C@@H](C)CC)[C@@H](C)CC)C(C)C)C(=O)N[C@@H](CCCCN)C(N)=O [HC190] (H-[NMeA]IFCIQYNIRSF[Nle]NVKHWPW[Nle]K-NH2; N-terminus assumed) |
